Measured values: patent US6362166B1, “Antipicornaviral compounds and methods for their use and preparation” (Agouron Pharmaceuticals, Inc., priority 1996, dated 2002)
Read-outs that look alike come from different tables or passages of the source.

Columns and labels:
[1] = biological target: T1, Recombinant Rhinovirus 3C protease (RVP) serotype-14 (Human rhinovirus 14, UniProt P03303); test: Inhibition of Rhinovirus Protease (fluorescence resonance energy transfer assay), serotype 14; type: biochemical, human rhinovirus (HRV); conditions: for kinact/KI: pH 7.6, read-out: kobs/I; for INHIB (percent inhibition): 10 minute preincubation with 50 nM RVP; for kobs/I: progress curves in enzyme start experiments
T1 construct: Recombinant Rhinovirus 3C proteases from serotypes 14, 16, 2 or 89; made in house
T1 sequence (P03303 1538-1719): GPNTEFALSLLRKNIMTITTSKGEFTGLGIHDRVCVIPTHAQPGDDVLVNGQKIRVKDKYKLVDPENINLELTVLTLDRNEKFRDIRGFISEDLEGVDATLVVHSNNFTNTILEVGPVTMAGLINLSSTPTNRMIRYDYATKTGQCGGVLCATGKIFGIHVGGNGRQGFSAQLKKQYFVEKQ

HRV-14 = test: Antirhinoviral HI-HeLa Cell Culture Assay (Cell Protection Assay, XTT dye reduction); type: cell-based, human rhinovirus (HRV) serotype-14; conditions: HI-HeLa cells infected with HRV-14, m.o.i. 0.13, two days, XTT, read-out: EC50
In short: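 Protection measured via XTT dye reduction (450/650 nm) two days after compound treatment of HI-HeLa cells, mock-infected or infected with cDNA-derived HRV-14 at m.o.i. 0.13. CC50 divided by EC50 gives the therapeutic index.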

[2] = Cytotoxicity in mock-infected HI-HeLa cells (antirhinoviral assay, XTT); type: cell-based; conditions: human; mock-infected HI-HeLa cells; two days; XTT; read-out: CC50
HI-HeLa cells = test: as above; type: cell-based
[3] = mock-infected HI-HeLa cells, two days, XTT, read-out: CC50

Compound | EC50 (HRV-14; Rhinovirus B, HRV14, 48 h) [µM] | CC50 at 2 days [2] [µM] | kobs/I ([1]; RVP serotype-14) | EC50 (HRV-14) [µM] | further results
COc1ccc2c(c1)CCN2C(=O)C=CC(CCC(N)=O)NC(=O)C(Cc1ccccc1)NC(=O)C(CC(C)C)NC(=O)OCc1ccccc1 (centres unmarked) [Compound 93] | > 320 | > 320 |  |  | kinact/KI [1]: 3440 M⁻¹ s⁻¹
CCOC(=O)/C=C/[C@H](CCC(=O)NC(c1ccccc1)(c1ccccc1)c1ccccc1)NC(=O)[C@H](Cc1ccccc1)NC(=O)[C@H](CC(C)C)NC(=O)OCc1ccccc1 [Compound 2, Ethyl-3-[CBZ-L-Leu-L-Phe-L-(Tr-Gln)]-E-Propenoate] | 100 | > 320 |  |  | Ki [1]: 6.6 µM
CC(C)C[C@H](NC(=O)OCc1ccccc1)C(=O)N[C@@H](Cc1ccccc1)C(=O)N[C@H](/C=C/C(=O)N1CCc2cc([N+](=O)[O-])ccc21)CCC(N)=O [Compound 86] | 17 | > 320 |  |  | Ki [1]: 4 µM; kinact/KI [1]: 12000 M⁻¹ s⁻¹
CC(C)C[C@H](NC(=O)OCc1ccccc1)C(=O)N[C@@H](Cc1ccccc1)C(=O)N[C@H](/C=C/C(=O)N1CCc2cc(Br)ccc21)CCC(N)=O [Compound 94] | 46.8 | > 320 |  |  | Ki [1]: 1.5 µM; kinact/KI [1]: 5800 M⁻¹ s⁻¹
CCOC(=O)/C=C/[C@H](CCC(N)=O)NC(=O)[C@H](Cc1ccccc1)NC(=O)[C@H](CC(C)C)NC(=O)SC [Compound 119] | 1.1 | > 320 |  |  | Ki [1]: 5 µM; kinact/KI [1]: 69800 M⁻¹ s⁻¹
COc1cccc2[nH]c(C(=O)NC(Cc3ccc(F)cc3)C(=O)NC(/C=C/C(=O)O)CCC(N)=O)cc12 (centres unmarked) [Compound 45] | > 100 | > 100 |  |  | 
CC(=O)OCC=CC(CCC(N)=O)NC(=O)C(Cc1ccccc1)NC(=O)C(CC(C)C)NC(=O)OCc1ccccc1 (centres unmarked) [Compound 76] | > 320 | > 320 |  |  | 
CCOC(=O)/C=C/C(CCC(N)=O)NC(=O)C(Cc1ccc(Cl)cc1)NC(=O)c1cc2c(OC)cccc2n1C(c1ccccc1)(c1ccccc1)c1ccccc1 [Compound 29, Ethyl-3-[N-(1-Tr-4-Methoxyindole-2-Carbonyl)-L-(4-Cl-Phe)-L-Gln]-E-Propenoate] | 27 | 500 |  |  | 
CC(C)CC(NC(=O)OCc1ccccc1)C(=O)NC(Cc1ccccc1)C(=O)NC(C=CCOc1ccc(C(F)(F)F)cc1)CCC(N)=O (centres unmarked) [Compound 77] | > 320 | > 320 |  |  | 
CCOC(=O)/C=C/[C@H](CCC(N)=O)NC(=O)[C@H](Cc1ccccc1)NS(=O)(=O)c1ccccc1 [Compound 34, Ethyl-3-[N-(Phenylsulfonyl)-L-Phe-L-Gln]-E-Propenoate] |  |  | 34 M⁻¹ s⁻¹ | 100 | INHIB (percent inhibition) ([1]; RVP serotype-14, 10 μM compound): 10(10) percent; CC50 (HI-HeLa cells; [3]): > 100 µM
CC(=O)N1CC/C(=C\[C@H](CCC(N)=O)NC(=O)[C@H](Cc2ccc(F)cc2)NC(=O)[C@H](CSc2ccccc2)NC(=O)SC2CCCC2)C1=O [Compound 181] |  |  | 1,000,000 M-1 sec-1 | 0.1 | CC50 (HI-HeLa cells): > 100 µM
CCOC(=O)/C=C/[C@H](CCC(N)=O)NC(=O)[C@H](Cc1ccccc1)NC(=O)OCc1ccccc1 [Compound 30, Ethyl-3-(CBZ-L-Phe-L-Gln)-E-Propenoate] |  |  | 430 M⁻¹ s⁻¹ | 5.6 | Ki ([1]; RVP serotype-14, 10 minute preincubation, substrate start, read-out: INHIB (Ki)): 373 µM; CC50 (HI-HeLa cells): 100 µM
CC(C)C[C@H](NC(=O)OCc1ccccc1)C(=O)N[C@@H](Cc1ccccc1)C(=O)N[C@H](/C=C/C(=O)N1CCc2cc(Cl)ccc21)CCC(N)=O [Compound 92] |  |  | 445 M⁻¹ s⁻¹ | 5.6 | CC50 (HI-HeLa cells; [3]): 56 µM
CCOC(=O)/C=C/[C@H](CCC(N)=O)NC(=O)[C@H](Cc1ccc(Cl)cc1)NC(=O)c1cc2c(OC)cccc2[nH]1 [Compound 26, Ethyl-3-[N-(4-Methoxyindole-2-Carbonyl)-L-(4-Cl-Phe)-L-Gln]-E-Propenoate] |  |  | 5,400 M-1 sec-1 | 2 | INHIB (percent inhibition) ([1]; RVP serotype-14, 0.1 μM compound): 52(0.1) percent; CC50 (HI-HeLa cells): 44.7 µM
CCOC(=O)/C=C/[C@H](CCC(N)=O)NC(=O)[C@H](Cc1ccc(OCC)cc1)NC(=O)[C@H](CC(C)C)NC(=O)OCc1ccccc1 [Compound 136] |  |  | 4,210 M-1 sec-1 | > 320 | CC50 (HI-HeLa cells): > 320 µM
